Experimental data reported in patent US11572369B2, “Bicyclic pyridine compositions and methods of using the same for cancer therapy” (UNIVERSITY OF SOUTH CAROLINA, priority 2019, dated 2023).

Assays:
Assay in all cases: KINOMEscan
Format in all cases: binding
Conditions in all cases: 2000 nM
[1] = target: ABL1(M351T)-phosphorylated (Homo sapiens, UniProt P00519, M351T)
ANKK1 = target: T1, ANKK1 (Homo sapiens, UniProt Q8NFD2)
T1 construct: DNA label (qPCR read-out); purchased KINOMEscan scanMAX panel (DiscoveRx)

ARK5 = target: T2, ARK5 (Homo sapiens, UniProt O60285)
T2 construct: DNA label (qPCR read-out); purchased KINOMEscan scanMAX panel (DiscoveRx)

AURKB = target: T3, AURKB (Homo sapiens, UniProt Q96GD4)
T3 construct: DNA label (qPCR read-out); purchased KINOMEscan scanMAX panel (DiscoveRx)

BRAF = target: T4, BRAF (Homo sapiens, UniProt P15056)
T4 construct: DNA label (for qPCR read-out); purchased KINOMEscan scanMAX panel (DiscoveRx)

CSNK1A1 = target: T5, CSNK1A1 (Homo sapiens, UniProt P48729)
T5 construct: DNA label (qPCR read-out); purchased DiscoverX (assay service)

CSNK1E = target: T6, CSNK1E (Homo sapiens, UniProt P49674)
T6 construct: DNA label (qPCR read-out); purchased DiscoverX (assay service)

DAPK3 = target: T7, DAPK3 (Homo sapiens, UniProt O43293)
T7 construct: DNA label; purchased DiscoveRx (KINOMEscan scanMAX panel)

EGFR(L747-T751del, Sins) = target: T8, EGFR(L747-T751del, Sins) (Homo sapiens, UniProt P00533, DEL747-750/T751S)
T8 construct: purchased DiscoveRx (KINOMEscan scanMAX panel)

EPHA7 = target: T9, EPHA7 (Homo sapiens, UniProt Q15375)
T9 construct: purchased DiscoveRx (KINOMEscan scanMAX panel)

EPHB1 = target: T10, EPHB1 (Homo sapiens, UniProt P54762)
T10 construct: purchased DiscoveRx (KINOMEscan scanMAX panel)

FLT3(D835V) = target: T11, FLT3(D835V) (Homo sapiens, UniProt P36888, D835V)
T11 construct: purchased DiscoveRx (KINOMEscan scanMAX panel)

ICK = target: T12, ICK (Homo sapiens, UniProt Q9UPZ9)
T12 construct: DNA label (qPCR read-out); purchased KINOMEscan (DiscoveRx) ScanMAX panel

IGF1R = target: T13, IGF1R (Homo sapiens, UniProt P08069)
T13 construct: DNA label (qPCR read-out); purchased KINOMEscan (DiscoveRx) ScanMAX panel

[2] = target: T14, JAK1(JH2domain-pseudokinase) (Homo sapiens, UniProt P23458)
T14 construct: JAK1(JH2domain-pseudokinase); DNA label (for qPCR read-out); purchased DiscoveRx (KINOMEscan scanMAX panel)

KIT (D816H) = target: T15, KIT (D816H) (Homo sapiens, UniProt P10721, D816H)
T15 construct: DNA label (for qPCR read-out); purchased DiscoveRx (KINOMEscan scanMAX panel)

KIT(V559D, V654A) = target: T16, KIT(V559D, V654A) (Homo sapiens, UniProt P10721, V559D/V654A)
T16 construct: purchased KINOMEscan (DiscoveRx) panel service

MAP3K3 = MAP3K3 (Homo sapiens, UniProt Q99759)
MEK5 = target: T17, MEK5 (Homo sapiens, UniProt Q13163)
T17 construct: purchased DiscoveRx (KINOMEscan scanMAX panel, service)

MLK1 = target: T18, MLK1 (Homo sapiens, UniProt P80192)
T18 construct: DNA label (qPCR read-out); purchased KINOMEscan scanMAX panel (DiscoveRx)

MST1 = target: T19, MST1 (Homo sapiens, UniProt Q13043)
T19 construct: DNA label (qPCR read-out); purchased KINOMEscan scanMAX panel (DiscoveRx)

NEK1 = target: T20, NEK1 (Homo sapiens, UniProt Q96PY6)
T20 construct: DNA label (for qPCR read-out); purchased KINOMEscan scanMAX panel (DiscoveRx)

NEK2 = target: T21, NEK2 (Homo sapiens, UniProt P51955)
T21 construct: DNA label (qPCR read-out); purchased KINOMEscan (ScanMAX panel service)

p38-gamma = target: T22, p38-gamma (Homo sapiens, UniProt P53778)
T22 construct: purchased DiscoverX (KINOMEscan service)

PFTK1 = target: T23, PFTK1 (Homo sapiens, UniProt O94921)
T23 construct: DNA label (for qPCR read-out); purchased DiscoveRx (KINOMEscan scanMAX service)

PIK3CA(Q546K) = target: T24, PIK3CA(Q546K) (Homo sapiens, UniProt P42336, Q546K)
T24 construct: DNA label; purchased DiscoveRx (KINOMEscan scanMAX panel)

PIP5K1A = target: T25, PIP5K1A (Homo sapiens, UniProt Q99755)
T25 construct: DNA label (qPCR read-out); purchased KINOMEscan (DiscoveRx) panel

[3] = target: T26, RSK3(Kin.Dom.1-N-terminal) (Homo sapiens, UniProt Q15349)
T26 construct: RSK3(Kin.Dom.1); purchased DiscoveRx (KINOMEscan scanMAX panel)

[4] = target: T27, RSK4(Kin.Dom.2-C-terminal) (Homo sapiens, UniProt Q9UK32)
T27 construct: RSK4(Kin.Dom.2); purchased DiscoveRx (KINOMEscan scanMAX panel)

S6K1 = target: T28, S6K1 (Homo sapiens, UniProt P23443)
T28 construct: purchased DiscoveRx (KINOMEscan scanMAX panel)

SgK110 = target: T29, SgK110 (Homo sapiens, UniProt P0C264)
T29 construct: purchased DiscoveRx (KINOMEscan scanMAX panel)

SLK = target: T30, SLK (Homo sapiens, UniProt Q9H2G2)
T30 construct: purchased KINOMEscan (DiscoveRx)

TSSK3 = target: T31, TSSK3 (Homo sapiens, UniProt Q96PN8)
T31 construct: DNA label (for qPCR read-out); purchased DiscoveRx (KINOMEscan scanMAX panel)

YANK1 = target: T32, YANK1 (Homo sapiens, UniProt Q8WU08)
T32 construct: purchased KINOMEscan (DiscoveRx) panel service
T32 sequence (Q8WU08 whole entry): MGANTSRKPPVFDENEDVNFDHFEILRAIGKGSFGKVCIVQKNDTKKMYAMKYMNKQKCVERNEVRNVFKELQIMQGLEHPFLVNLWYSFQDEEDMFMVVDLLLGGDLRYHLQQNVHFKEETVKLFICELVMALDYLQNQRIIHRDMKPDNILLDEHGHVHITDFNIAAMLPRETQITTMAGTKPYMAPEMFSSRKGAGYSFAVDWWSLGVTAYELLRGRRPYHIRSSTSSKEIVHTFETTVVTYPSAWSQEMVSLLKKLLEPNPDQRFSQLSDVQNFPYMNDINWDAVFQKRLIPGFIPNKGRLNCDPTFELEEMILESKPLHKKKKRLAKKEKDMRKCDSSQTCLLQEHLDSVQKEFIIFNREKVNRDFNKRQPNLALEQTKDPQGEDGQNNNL

T31 sequence (Q96PN8 whole entry): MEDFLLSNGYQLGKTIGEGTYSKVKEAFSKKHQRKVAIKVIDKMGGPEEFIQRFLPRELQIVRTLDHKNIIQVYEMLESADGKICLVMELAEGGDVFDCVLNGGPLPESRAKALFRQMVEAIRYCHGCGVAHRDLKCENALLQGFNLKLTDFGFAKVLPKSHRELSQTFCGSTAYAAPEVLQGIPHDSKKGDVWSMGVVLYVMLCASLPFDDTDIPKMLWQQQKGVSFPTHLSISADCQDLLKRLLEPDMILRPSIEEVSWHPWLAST
T12 sequence (Q9UPZ9 whole entry): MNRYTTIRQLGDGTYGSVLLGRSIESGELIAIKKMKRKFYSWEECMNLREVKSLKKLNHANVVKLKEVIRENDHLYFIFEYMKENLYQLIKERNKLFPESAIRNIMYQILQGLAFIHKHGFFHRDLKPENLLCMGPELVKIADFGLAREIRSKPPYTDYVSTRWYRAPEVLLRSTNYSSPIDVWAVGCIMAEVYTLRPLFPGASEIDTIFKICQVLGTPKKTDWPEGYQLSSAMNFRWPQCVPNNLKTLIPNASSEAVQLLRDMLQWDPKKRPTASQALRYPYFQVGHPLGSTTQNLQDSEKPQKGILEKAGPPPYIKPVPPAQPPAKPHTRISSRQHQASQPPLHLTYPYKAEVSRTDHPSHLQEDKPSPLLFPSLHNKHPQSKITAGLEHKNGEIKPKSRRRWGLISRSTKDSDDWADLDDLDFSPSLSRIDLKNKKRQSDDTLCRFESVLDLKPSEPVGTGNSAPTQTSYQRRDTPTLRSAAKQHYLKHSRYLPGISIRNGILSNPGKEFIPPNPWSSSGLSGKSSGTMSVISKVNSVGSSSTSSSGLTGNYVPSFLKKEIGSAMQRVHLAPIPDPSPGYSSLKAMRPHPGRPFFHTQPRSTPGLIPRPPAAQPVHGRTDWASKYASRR
T30 sequence (Q9H2G2 whole entry): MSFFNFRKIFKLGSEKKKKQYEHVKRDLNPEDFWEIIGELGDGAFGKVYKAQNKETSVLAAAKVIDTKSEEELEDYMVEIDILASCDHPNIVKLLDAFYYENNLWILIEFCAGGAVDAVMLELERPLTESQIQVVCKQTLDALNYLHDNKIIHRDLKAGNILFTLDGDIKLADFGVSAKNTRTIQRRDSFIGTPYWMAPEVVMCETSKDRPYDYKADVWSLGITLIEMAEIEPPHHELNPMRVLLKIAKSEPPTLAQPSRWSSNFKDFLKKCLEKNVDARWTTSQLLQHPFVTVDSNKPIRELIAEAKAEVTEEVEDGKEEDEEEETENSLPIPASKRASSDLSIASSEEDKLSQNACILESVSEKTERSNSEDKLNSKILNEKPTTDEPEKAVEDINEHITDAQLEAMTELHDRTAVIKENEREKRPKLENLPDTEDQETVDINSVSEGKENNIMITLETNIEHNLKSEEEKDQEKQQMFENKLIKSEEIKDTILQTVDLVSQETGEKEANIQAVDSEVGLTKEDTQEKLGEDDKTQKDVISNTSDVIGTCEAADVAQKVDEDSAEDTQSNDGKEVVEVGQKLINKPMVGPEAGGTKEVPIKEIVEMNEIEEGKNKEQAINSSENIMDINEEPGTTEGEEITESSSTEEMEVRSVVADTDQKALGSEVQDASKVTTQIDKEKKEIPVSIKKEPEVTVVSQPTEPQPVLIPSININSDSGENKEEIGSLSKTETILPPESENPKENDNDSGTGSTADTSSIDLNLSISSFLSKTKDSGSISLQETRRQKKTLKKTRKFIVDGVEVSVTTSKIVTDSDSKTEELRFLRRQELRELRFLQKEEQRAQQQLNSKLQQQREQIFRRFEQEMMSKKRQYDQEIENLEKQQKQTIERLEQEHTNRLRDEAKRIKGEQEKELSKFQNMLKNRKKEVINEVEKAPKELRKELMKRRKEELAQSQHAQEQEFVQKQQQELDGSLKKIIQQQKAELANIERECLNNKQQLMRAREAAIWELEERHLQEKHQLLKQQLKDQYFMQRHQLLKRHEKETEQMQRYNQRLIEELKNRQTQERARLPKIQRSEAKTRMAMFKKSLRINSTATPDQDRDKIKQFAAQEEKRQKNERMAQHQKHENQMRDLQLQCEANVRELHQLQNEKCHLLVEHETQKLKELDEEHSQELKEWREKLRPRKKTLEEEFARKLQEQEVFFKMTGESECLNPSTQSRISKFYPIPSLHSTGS
T17 sequence (Q13163 whole entry): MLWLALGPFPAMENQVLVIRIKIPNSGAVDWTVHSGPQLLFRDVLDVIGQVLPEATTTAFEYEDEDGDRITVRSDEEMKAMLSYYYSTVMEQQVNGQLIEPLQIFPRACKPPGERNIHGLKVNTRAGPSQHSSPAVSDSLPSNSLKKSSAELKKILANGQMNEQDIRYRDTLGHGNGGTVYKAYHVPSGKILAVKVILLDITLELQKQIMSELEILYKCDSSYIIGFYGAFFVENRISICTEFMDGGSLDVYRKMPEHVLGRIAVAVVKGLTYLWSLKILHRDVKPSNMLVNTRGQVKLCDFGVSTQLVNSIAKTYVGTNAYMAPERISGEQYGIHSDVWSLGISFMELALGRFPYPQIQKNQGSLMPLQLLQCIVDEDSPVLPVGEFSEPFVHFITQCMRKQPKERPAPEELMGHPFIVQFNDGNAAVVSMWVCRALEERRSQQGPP
T18 sequence (P80192 whole entry): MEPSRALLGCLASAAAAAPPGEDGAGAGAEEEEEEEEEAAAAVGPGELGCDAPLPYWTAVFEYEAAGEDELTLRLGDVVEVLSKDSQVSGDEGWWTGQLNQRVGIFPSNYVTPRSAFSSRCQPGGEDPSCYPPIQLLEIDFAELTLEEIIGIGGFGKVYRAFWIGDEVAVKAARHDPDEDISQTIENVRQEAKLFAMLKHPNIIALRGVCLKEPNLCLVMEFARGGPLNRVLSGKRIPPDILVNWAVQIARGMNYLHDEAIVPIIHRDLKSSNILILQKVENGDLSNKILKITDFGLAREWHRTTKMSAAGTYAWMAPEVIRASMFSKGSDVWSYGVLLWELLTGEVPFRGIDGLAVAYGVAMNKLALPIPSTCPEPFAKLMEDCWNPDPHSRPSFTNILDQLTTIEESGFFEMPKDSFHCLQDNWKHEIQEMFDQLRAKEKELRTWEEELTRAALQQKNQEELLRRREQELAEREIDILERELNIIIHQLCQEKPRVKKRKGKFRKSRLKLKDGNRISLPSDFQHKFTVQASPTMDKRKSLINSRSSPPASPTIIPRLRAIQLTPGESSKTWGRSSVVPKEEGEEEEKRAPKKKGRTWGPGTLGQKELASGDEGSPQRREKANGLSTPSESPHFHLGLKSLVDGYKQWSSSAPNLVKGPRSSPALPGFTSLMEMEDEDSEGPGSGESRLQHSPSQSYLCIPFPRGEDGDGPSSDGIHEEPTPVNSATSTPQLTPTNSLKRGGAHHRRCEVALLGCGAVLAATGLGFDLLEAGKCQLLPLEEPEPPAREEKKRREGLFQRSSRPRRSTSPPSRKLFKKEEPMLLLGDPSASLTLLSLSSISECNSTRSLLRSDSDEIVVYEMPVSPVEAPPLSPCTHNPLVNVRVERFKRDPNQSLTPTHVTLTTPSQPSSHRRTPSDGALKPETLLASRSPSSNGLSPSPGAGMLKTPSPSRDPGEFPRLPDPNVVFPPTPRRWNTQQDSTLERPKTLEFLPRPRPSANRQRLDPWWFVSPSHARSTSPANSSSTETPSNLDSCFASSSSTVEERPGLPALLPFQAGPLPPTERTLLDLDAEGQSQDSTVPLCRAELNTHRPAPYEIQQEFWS
T7 sequence (O43293 whole entry): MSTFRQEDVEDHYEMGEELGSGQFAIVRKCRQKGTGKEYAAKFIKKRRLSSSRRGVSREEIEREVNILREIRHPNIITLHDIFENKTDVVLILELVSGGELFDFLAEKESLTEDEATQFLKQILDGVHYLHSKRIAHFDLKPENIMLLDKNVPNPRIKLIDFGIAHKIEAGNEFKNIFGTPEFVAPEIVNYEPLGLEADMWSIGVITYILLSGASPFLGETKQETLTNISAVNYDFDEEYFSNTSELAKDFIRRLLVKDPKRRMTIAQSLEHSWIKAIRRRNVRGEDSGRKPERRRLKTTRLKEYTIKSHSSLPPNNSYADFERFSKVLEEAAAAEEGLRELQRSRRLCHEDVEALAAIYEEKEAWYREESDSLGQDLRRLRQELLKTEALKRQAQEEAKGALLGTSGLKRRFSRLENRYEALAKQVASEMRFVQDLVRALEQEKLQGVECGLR
T21 sequence (P51955 whole entry): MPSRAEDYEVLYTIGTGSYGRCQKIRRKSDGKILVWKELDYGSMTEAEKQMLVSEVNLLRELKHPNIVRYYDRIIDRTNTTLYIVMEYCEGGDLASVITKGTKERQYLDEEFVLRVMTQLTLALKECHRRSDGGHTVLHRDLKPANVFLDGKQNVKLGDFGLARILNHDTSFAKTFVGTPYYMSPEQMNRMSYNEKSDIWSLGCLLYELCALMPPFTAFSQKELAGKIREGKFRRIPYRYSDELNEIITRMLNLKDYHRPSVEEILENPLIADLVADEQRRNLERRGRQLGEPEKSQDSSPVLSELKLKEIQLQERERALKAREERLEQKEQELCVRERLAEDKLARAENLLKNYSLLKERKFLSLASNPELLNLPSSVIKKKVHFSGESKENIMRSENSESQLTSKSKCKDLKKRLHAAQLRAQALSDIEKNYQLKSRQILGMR

| Compound | % Ctrl [1] | % Ctrl (ANKK1) | % Ctrl (ARK5) | % Ctrl (AURKB) | % Ctrl (BRAF) | % Ctrl (CSNK1A1) | % Ctrl (CSNK1E) | % Ctrl (DAPK3) | % Ctrl (EGFR(L747-T751del, Sins)) | % Ctrl (EPHA7) | % Ctrl (EPHB1) | % Ctrl (FLT3(D835V)) | % Ctrl (ICK) | % Ctrl (IGF1R) | % Ctrl [2] | % Ctrl (KIT (D816H)) | % Ctrl (KIT(V559D, V654A)) | % Ctrl (MAP3K3) | % Ctrl (MEK5) | % Ctrl (MLK1) | further results |
| --- | --- | --- | --- | --- | --- | --- | --- | --- | --- | --- | --- | --- | --- | --- | --- | --- | --- | --- | --- | --- | --- |
| CN(C)C(=O)c1ccc(N2CCCN(c3ccnc4sc(C(N)=O)c(N)c34)CC2)cc1 [15u, 3-amino-4-(4-(4-(dimethylcarbamoyl)phenyl)-1,4-diazepan-1-yl)thieno[2,3-b]pyridine-2-carboxamide] | 100 % Ctrl | 100 % Ctrl | 57 % Ctrl | 91 % Ctrl | 100 % Ctrl | 33 % Ctrl | 25 % Ctrl | 81 % Ctrl | 87 % Ctrl | 92 % Ctrl | 88 % Ctrl | 33 % Ctrl | 84 % Ctrl | 92 % Ctrl | 89 % Ctrl | 91 % Ctrl | 100 % Ctrl | 100 % Ctrl | 86 % Ctrl | 95 % Ctrl | % Ctrl (MST1): 100 % Ctrl; % Ctrl (NEK1): 80 % Ctrl; % Ctrl (NEK2): 95 % Ctrl; % Ctrl (p38-gamma): 98 % Ctrl; % Ctrl (PFTK1): 96 % Ctrl; % Ctrl (PIK3CA(Q546K)): 66 % Ctrl; % Ctrl (PIP5K1A): 100 % Ctrl; % Ctrl [3]: 99 % Ctrl; % Ctrl [4]: 94 % Ctrl; % Ctrl (S6K1): 95 % Ctrl; % Ctrl (SgK110): 95 % Ctrl; % Ctrl (SLK): 56 % Ctrl; % Ctrl (TSSK3): 93 % Ctrl; % Ctrl (YANK1): 89 % Ctrl |
| [2H]C([2H])([2H])N(C(=O)c1ccc(N2CCCN(c3ccnc4sc(C(N)=O)c(N)c34)CC2)cc1)C([2H])([2H])[2H] [15u_D6, 3-amino-4-(4-(4-(bis(methyl-d3)carbamoyl)phenyl)-1,4-diazepan-1-yl)thieno[2,3-b]pyridine-2-carboxamide] | 77 % Ctrl | 91 % Ctrl | 77 % Ctrl | 90 % Ctrl | 96 % Ctrl | 12 % Ctrl | 12 % Ctrl | 83 % Ctrl | 100 % Ctrl | 81 % Ctrl | 88 % Ctrl | 14 % Ctrl | 66 % Ctrl | 91 % Ctrl | 89 % Ctrl | 66 % Ctrl | 100 % Ctrl | 72 % Ctrl | 65 % Ctrl | 92 % Ctrl | % Ctrl (MST1): 98 % Ctrl; % Ctrl (NEK1): 96 % Ctrl; % Ctrl (NEK2): 95 % Ctrl; % Ctrl (p38-gamma): 100 % Ctrl; % Ctrl (PFTK1): 100 % Ctrl; % Ctrl (PIK3CA(Q546K)): 72 % Ctrl; % Ctrl (PIP5K1A): 100 % Ctrl; % Ctrl [3]: 77 % Ctrl; % Ctrl [4]: 79 % Ctrl; % Ctrl (S6K1): 89 % Ctrl; % Ctrl (SgK110): 100 % Ctrl; % Ctrl (SLK): 54 % Ctrl; % Ctrl (TSSK3): 100 % Ctrl; % Ctrl (YANK1): 97 % Ctrl |
